“And” between values parts separate entries of the source, which are not always exact repeats. Equal entries are not always repeated. Peptide text beside a SMILES is read from it.
Experiments:
[1] = molecular target: T1, Prolactin-releasing peptide receptor (Homo sapiens, UniProt P49683)
T1 sequence (P49683 whole entry): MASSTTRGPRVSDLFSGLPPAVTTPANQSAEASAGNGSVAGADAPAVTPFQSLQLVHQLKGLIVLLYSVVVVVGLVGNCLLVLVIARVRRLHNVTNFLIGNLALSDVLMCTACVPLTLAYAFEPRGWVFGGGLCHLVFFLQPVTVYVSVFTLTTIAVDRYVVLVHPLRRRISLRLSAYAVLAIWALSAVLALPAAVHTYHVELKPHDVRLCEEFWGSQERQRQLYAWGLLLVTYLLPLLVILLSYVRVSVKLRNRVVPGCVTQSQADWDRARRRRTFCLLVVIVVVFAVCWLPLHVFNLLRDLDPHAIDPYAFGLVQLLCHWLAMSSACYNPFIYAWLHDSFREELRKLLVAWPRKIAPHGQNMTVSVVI

[2] = molecular target: Neuropeptide FF receptor 2 (Homo sapiens, UniProt Q9Y5X5)
Sequence of Neuropeptide FF receptor 2 (Q9Y5X5 whole entry): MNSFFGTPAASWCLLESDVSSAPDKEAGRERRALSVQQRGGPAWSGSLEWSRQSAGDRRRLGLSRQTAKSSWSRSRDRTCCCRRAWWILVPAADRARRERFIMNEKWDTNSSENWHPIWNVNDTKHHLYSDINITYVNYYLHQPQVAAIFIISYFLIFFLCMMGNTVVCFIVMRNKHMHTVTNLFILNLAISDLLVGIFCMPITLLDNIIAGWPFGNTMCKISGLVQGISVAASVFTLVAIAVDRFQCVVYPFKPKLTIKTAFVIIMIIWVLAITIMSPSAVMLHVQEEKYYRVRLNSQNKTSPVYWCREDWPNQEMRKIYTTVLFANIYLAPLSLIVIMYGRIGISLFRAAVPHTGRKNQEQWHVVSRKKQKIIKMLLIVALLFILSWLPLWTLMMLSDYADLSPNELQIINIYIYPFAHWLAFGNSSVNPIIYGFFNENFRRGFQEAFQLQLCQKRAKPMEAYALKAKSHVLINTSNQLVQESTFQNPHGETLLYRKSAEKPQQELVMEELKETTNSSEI

Compound | Ki | Ki [1] [µM] | Ki [2] [µM]
CC(C)C[C@H](NC(=O)[C@@H](N)Cc1ccccc1)C(=O)N[C@@H](Cc1ccccc1)C(=O)N[C@@H](CCC(N)=O)C(=O)N1CCC[C@H]1C(=O)N[C@@H](CCC(N)=O)C(=O)N[C@@H](CCCN=C(N)N)C(=O)N[C@@H](Cc1ccccc1)C(N)=O [CAS_235433-36-0] | 0.0052 µM and 0.0059 µM |  | 
N=C(N)NCCCC(NC(=O)C(c1ccccc1)c1ccccc1)C(=O)NCc1ccc(O)cc1 (configuration not stated) [NSC_5311023] | 0.39 µM | > 10 | 0.64
CC(C)C[C@H](NC(=O)[C@@H](N)Cc1ccccc1)C(=O)N[C@@H](Cc1ccccc1)C(=O)N[C@@H](CCC(N)=O)C(=O)N1CCC[C@H]1C(=O)N[C@@H](CCC(N)=O)C(=O)N[C@@H](CCCN=C(N)N)C(=O)N[C@@H](Cc1ccccc1)C(=O)O [NSC_0] | 2.4 µM |  | 
CC(C)C[C@H](NC(=O)[C@H](CC(N)=O)NC(=O)[C@@H]1CCCN1C(=O)[C@@H](N)C(C)C)C(=O)N1CCC[C@H]1C(=O)N[C@@H](CCC(N)=O)C(=O)N[C@@H](CCCNC(=N)N)C(=O)N[C@@H](Cc1ccccc1)C(N)=O [RFamide-related peptide 3] | 0.019 µM | > 10 | 0.055

Now from value to molecule:

Ki | Ki [1] [µM] | Ki [2] [µM] | Compound
 | 0.047 | 0.032 | CC[C@H](C)[C@H](NC(=O)CN)C(=O)N[C@@H](CCCN=C(N)N)C(=O)N1CCC[C@H]1C(=O)N[C@H](C(=O)NCC(=O)N[C@@H](CCCN=C(N)N)C(=O)N[C@@H](Cc1ccccc1)C(N)=O)C(C)C [NSC_0] (H-GIRPVGRF-NH2)
 |  | 0.0053 | CC(C)C[C@H](NC(=O)[C@H](N)Cc1ccc(O)cc1)C(=O)N(C)[C@@H](Cc1ccccc1)C(=O)N[C@@H](CCC(N)=O)C(=O)N1CCC[C@H]1C(=O)N[C@@H](CCC(N)=O)C(=O)N[C@@H](CCCN=C(N)N)C(=O)N[C@@H](Cc1ccccc1)C(N)=O [CAS_132709] (HELM PEPTIDE1{[dY].L.[meF].Q.P.Q.R.F.[am]}$$$$V2.0)
0.015 µM | > 10 | 0.015 | CSCC[C@H](N)C(=O)N1CCC[C@H]1C(=O)N[C@@H](Cc1cnc[nH]1)C(=O)N[C@@H](CO)C(=O)N[C@@H](Cc1ccccc1)C(=O)N[C@@H](C)C(=O)N[C@@H](CC(N)=O)C(=O)N[C@@H](CC(C)C)C(=O)N1CCC[C@H]1C(=O)N[C@@H](CC(C)C)C(=O)N[C@@H](CCCNC(=N)N)C(=O)N[C@@H](Cc1ccccc1)C(N)=O [RFamide-related peptide 1] (H-MPHSFANLPLRF-NH2)
0.0023 µM | 0.001 | 0.023 | CC[C@H](C)[C@H](NC(=O)CNC(=O)[C@H](CCCNC(=N)N)NC(=O)CNC(=O)[C@@H](NC(=O)[C@H](Cc1ccc(O)cc1)NC(=O)[C@H](Cc1c[nH]c2ccccc12)NC(=O)[C@H](C)NC(=O)[C@@H]1CCCN1C(=O)[C@H](CC(N)=O)NC(=O)[C@@H](NC(=O)[C@H](CC(=O)O)NC(=O)[C@@H]1CCCN1C(=O)[C@@H](N)[C@@H](C)O)[C@@H](C)CC)[C@@H](C)O)C(=O)N[C@@H](CCCNC(=N)N)C(=O)N1CCC[C@H]1C(=O)N[C@H](C(=O)NCC(=O)N[C@@H](CCCNC(=N)N)C(=O)N[C@@H](Cc1ccccc1)C(N)=O)C(C)C [CAS_222988-10-5] (H-TPDINPAWYTGRGIRPVGRF-NH2)
